We go through eleven compounds from patent US20240043386A1, “Modulators of the Cystic Fibrosis Transmembrane Conductance Regulator Protein and Methods of Use” (AbbVie Global Enterprises Ltd., priority 2021, published 2024).

In test [1] the target is T1, F508delCFTR (Homo sapiens, UniProt P13569, DEL508-508).
T1 construct: expressed in transfected cells; host or cells: CFBE41o- human lung-derived epithelial cell line, doxycycline-inducible expression
As to the kind of experiment: Cell Surface Expression-Horse Radish Peroxidase (CSE-HRP) assay in CFBE41o-F508delCFTR-HRP cells. Format: cell-based. The following applies: for EC50: CFBE41o-F508delCFTR-HRP cells, 18-24 hours at 33° C., luminescence. The protocol: A cellular assay for measuring the F508delCFTR cell surface expression after correction with test compounds either without or with a co-corrector (2 μM of 3-[(2R,4R)-4-({[1-(2,2-difluoro-1,3-benzodioxol-5-yl)cyclopropyl]carbonyl}amino)-7-methoxy-3,4-dihydro-2H-chromen-2-yl]benzoic acid), was developed in human lung derived epithelial cell line (CFBE4lo-) (Veit G et al, (2012) Mol Biol Cell. 23(21): 4188-4202). The development was achieved by expressing the F508delCFTR mutation along with a horseradish peroxidase (HRP) in the fourth exofacial loop, and then measuring the HRP activity using luminescence readout from these cells, CFBE4lo-F508delCFTR-HRP, that were incubated overnight with the test corrector compounds, either without or with the co-corrector. For this primary assay, the CFBE4lo-F508delCFTR-HRP cells were plated in 384-well plates (Greiner Bio-one; Cat 781080) at 4,000 cells/well along with 0.5 μg/mL doxycycline to induce the F508delCFTR-RP expression and further incubated at 37° C., 5% CO2 for 68-72 hours. The test compounds were then added either without or with a co-corrector at the required concentrations and further incubated for 18-24 hours at 33° C. The highest concentration tested was 20 μM or 30 μM (GI-1 to GIII-36) with an 8-point concentration response curve using a 3-fold dilution in both the test compound without or with the co-corrector. Three replicate plates were run to determine one EC50. All plates contained negative controls (dimethyl sulfoxide, DMSO) and positive control (2 μM or 3 μM (GI-1 to GIII-36) of 3-[(2R,4R)-4-({[1-(2,2-difluoro-1,3-benzodioxol-5-yl)cyclopropyl]carbonyl}amino)-7-methoxy-3,4-dihydro-2H-chromen-2-yl]benzoic acid) as well as on-plate concentration response of the positive control. Post incubation, the plates were washed 5× times with Dulbecco's phosphate buffered saline (DPBS), followed by the addition of the HRP substrate, luminol (50 μL), and measuring the HRP activity using luminescence readout on EnVision® Multilabel Plate Reader (Perkin Elmer; product number 2104-0010). The raw counts from the experiment were analyzed using Accelrys® Assay Explorer v3.3.
Z′ greater than 0.5 was used as passing quality control criteria for the plates. The Z′ is defined as:
1−[3*SDPositive Control+3*SDNegative Control/Absolute (MeanPositive Control−MeanNegative Control)]
The % activity measured at each of the 8 test concentrations of the test compound added either without or with a co-corrector (2 μM or 3 μM (GI-1 to GIII-36) of 3-[(2R,4R)-4-({[1-(2,2-difluoro-1,3-benzodioxol-5-yl)cyclopropyl]carbonyl}amino)-7-methoxy-3,4-dihydro-2H-chromen-2-yl]benzoic acid) was normalized to the on-plate positive control using the following formulae:
% activity (Test compound without co-corrector)=[(test compound without co-corrector response−DMSO response)/(positive control response−DMSO response)]*100
% activity (Test compound with co-corrector)=[(test compound with co-corrector response−DMSO response)/(positive control response−DMSO response)]*100
The maximum % activity achieved for the test compound either without or with a co-corrector at any tested concentration is presented in Table 3 along with the respective EC50's calculated using the following general sigmoidal curve with variable Hill slope equation (described as Model 42 in the Accelrys® Assay Explorer v3.3 software):
General sigmoidal curve with concentration, response, top, bottom, EC50 and Hill slope. This model describes a sigmoidal curve with an adjustable baseline, a. The equation can be used to fit curves where response is either increasing or decreasing with respect to the independent variable, “x”.

Test [2] concerns the target T2, F508del/F508del CFTR (Homo sapiens, UniProt P13569, DEL508-508).
T2 construct: cells isolated from CF patients with the homozygous mutation; endogenous in cells; host or cells: primary human bronchial epithelial (hBE) cells from CF patients homozygous for F508del
Description: Trans-Epithelial Current Clamp (TECC) assay using primary human bronchial epithelial cells. As to conditions: for Emax (% Dual): maximum percent activity relative to positive control (co-corrector 0.15 μM + potentiator 0.45 μM = 100%), primary hBE cells F508del/F508del; for EC50: primary hBE cells homozygous F508del/F508del, test C2 corrector with co-corrector and potentiator, 18-24 hours at 37° C., equivalent CFTR current (IEQ)/AUC. Format: cell-based. An excerpt: A cell-based assay was developed using the primary human bronchial epithelial cells (hBE cells) with F508del/F508del CFTR and other mutations.
Primary human bronchial epithelial (hBE) cells from CFTR patients with homozygous F508del/F508del mutation were expanded from 1×10^6 to 250×10^6 cells (Neuberger, T et al., 2011, Methods Mol Biol 741:39-54). For this purpose, cells isolated from CF patients with the homozygous mutation, procured from the CF center tissue procurement and cell culture core at the Marsico Lung Institute at UNC (Randell), the Cystic Fibrosis translational research center at McGill University (University), and Rosalind Franklin University Medical School (RFUMS) were seeded onto 24 well Corning (Cat #3378) filter plates that were coated with 3T3 conditioned media and grown at an air-liquid interface for 35 days using an Ultroser® G supplemented differentiation media. All the primary human bronchial epithelial cells were collected in accordance with institutional review board approval protocols. Apical surface mucus was removed 72 hours before the experiment by incubating the apical surface of the cells for 30 minutes with 3 mM dithiothreitol (DTT) prepared in Dulbecco's phosphate buffered saline (DPBS) with Ca^2+ and Mg^2+. This was followed with aspiration of the mucus from the apical surface along with DPBS. The apical surface was re-washed with phosphate buffered saline (PBS) incubated for 30 minutes followed with aspiration. These hBE cells were then incubated with the desired concentrations of the test C2 corrector compounds along with co-corrector, 4-[(2R,4R)-4-({[1-(2,2-difluoro-1,3-benzodioxol-5-yl)cyclopropyl]carbonyl}amino)-7-(difluoromethoxy)-3,4-dihydro-2H-chromen-2-yl]benzoic acid and potentiator, (5-{3-amino-5-[4-(trifluoromethoxy)benzene-1-sulfonyl]pyridin-2-yl}-1,3,4-oxadiazol-2-yl)methanol, for 18-24 hours at 37° C., 5% CO2. The desired concentrations of the correctors and potentiator compounds were prepared from the 10 mM stocks in differentiation media and were always applied on the basolateral side of the epithelial cells. We also used an assay format where a fixed concentration of potentiator was added chronically along with the corrector compounds. This chronic treatment with the potentiator helped eliminate any interaction that might happen with CFTR modulators (correctors and potentiators) and thereby determined the true efficacy of the modulator combinations reflective of clinical relevance.
The assay uses a Transepithelial Current Clamp (TECC) (Vu, C B et al., 2017; J Med Chem 60:458-473) instrument that can measure the functionality of the mutated channel by measuring the equivalent CFTR current (IEQ) generated by the polarized primary epithelial cells. We used a TECC-24 with a 24-channel electrode manifold allowing for the simultaneous measurement of the transepithelial voltage, VT, and transepithelial resistance, RT, under current clamp conditions, from 24 filters using a 24 well Costar filter plate. The design of the filters in the 24 well filter plates was exactly the same as the design of an individual Transwell filter used in the classical Ussing Chamber with a surface area of 0.33 cm^2. Each measured VT values were corrected for the electrode offset potential measured using buffer alone in a separate plate, and each measured RT values were then corrected for the combined solution series and empty filter resistances. The corrected VT and RT values were then used to calculate the equivalent current, IEQ using Ohm's law (IEQ=VT/RT). The area under the curve (AUC) for the time period between the forskolin peak IEQ response and at the time of bumetanide addition was also calculated using a one-third trapezoid method, in addition to calculating the IEQ. The assay was run in a 24-well format and all 24-wells were measured at the same time point giving a higher throughput for this assay. […]

Setting [3] is: with co-corrector (2 μM), read-out: EC50 (with co-corrector).
Setting [4] is: without co-corrector, read-out: EC50 (without co-corrector).
[5] abbreviates: without co-corrector, normalized to on-plate positive control corrector (2 μM).

Where two headings read alike, the source gives them in different places.

T2 sequence (P13569 with tags, fused parts or gaps DEL508-508): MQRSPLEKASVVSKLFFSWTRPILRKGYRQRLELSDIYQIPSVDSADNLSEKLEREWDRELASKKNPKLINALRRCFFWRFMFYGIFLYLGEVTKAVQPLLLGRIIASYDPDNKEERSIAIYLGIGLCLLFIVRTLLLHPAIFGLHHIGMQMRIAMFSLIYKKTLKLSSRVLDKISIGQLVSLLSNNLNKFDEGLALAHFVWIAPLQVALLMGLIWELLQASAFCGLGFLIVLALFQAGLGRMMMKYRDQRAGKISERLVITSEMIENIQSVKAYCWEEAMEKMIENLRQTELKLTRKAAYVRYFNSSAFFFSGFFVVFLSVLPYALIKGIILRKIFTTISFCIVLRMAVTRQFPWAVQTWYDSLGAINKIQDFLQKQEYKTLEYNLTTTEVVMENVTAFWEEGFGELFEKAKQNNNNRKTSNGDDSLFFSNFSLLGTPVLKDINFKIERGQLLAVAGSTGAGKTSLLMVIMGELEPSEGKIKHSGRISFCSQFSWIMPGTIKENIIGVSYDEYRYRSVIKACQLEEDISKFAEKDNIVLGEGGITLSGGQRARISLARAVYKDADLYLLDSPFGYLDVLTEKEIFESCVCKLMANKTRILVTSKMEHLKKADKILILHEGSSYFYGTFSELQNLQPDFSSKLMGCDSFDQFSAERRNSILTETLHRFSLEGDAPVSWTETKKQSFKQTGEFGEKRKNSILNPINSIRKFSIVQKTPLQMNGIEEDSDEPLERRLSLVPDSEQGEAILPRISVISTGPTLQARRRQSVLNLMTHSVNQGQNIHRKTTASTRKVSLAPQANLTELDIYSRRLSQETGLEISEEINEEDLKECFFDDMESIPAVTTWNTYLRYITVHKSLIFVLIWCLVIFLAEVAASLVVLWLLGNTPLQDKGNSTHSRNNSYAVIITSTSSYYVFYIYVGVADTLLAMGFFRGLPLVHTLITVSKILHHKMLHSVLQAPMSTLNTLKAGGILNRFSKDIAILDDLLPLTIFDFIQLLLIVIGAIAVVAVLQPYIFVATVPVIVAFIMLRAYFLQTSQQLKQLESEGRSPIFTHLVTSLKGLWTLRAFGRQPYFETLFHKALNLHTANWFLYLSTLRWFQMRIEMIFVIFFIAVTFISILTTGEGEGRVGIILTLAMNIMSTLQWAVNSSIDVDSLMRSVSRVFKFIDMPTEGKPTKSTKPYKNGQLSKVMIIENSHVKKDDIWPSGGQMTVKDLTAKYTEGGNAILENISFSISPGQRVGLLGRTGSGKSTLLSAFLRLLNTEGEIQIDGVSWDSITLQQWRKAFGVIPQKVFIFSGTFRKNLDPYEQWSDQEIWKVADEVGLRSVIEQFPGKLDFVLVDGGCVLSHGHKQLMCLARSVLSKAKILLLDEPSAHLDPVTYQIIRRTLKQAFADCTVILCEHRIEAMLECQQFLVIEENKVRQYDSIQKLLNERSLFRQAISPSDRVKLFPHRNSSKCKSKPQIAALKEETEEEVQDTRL
T1 sequence (P13569 with tags, fused parts or gaps DEL508-508): as above

As for `COc1ccc(C)cc1[C@@]1(C(=O)NS(=O)(=O)c2cccc3nc(C)ccc23)C[C@H]1c1cnc(C)cn1` (single isomer, unassigned) [Example 91], the EC50 in test [1] (setting [3]) is 4340 nM; in test [1] (setting [4]), 5240 nM; in test [2] it was more than 800 nM. Moreover, in test [1] (with co-corrector (2 μM), normalized to on-plate positive control corrector (2 μM)), the “Maximum % activity (with co-corrector)” value is recorded as 579%. Moreover, the “Maximum % activity (without co-corrector)” value in test [1] (setting [5]) was found to be 226%. Moreover, the “Emax (% Dual)” value in test [2] was determined as 138 % Dual.

For the compound `COc1nccc([C@@H]2C[C@]2(C(=O)NS(=O)(=O)c2cccc3nc(C)ccc23)c2cc(C)ccc2OC)n1` (racemic) [Example 95, rac-(1r,2r)-1-(2-methoxy-5-methylphenyl)-2-(2-methoxypyrimidin-4-yl)-N-(2-methylquinoline-5-sulfonyl)cyclopropane-1-carboxamide], the figures for the EC50 in test [1] (setting [3]), in test [1] (setting [4]) and in test [2] were 855 nM, 1810 nM and 12.6 nM, respectively. In test [1] (setting [5]), the “Maximum % activity (without co-corrector)” value worked out at 749%. For the same compound, the “Emax (% Dual)” value in test [2] is 209 % Dual.

For `COc1ccc([C@H]2C[C@@]2(C(=O)NS(=O)(=O)c2cccc3nc(C)ccc23)c2cc(C)ccc2OC)c(OC)n1` (single isomer, unassigned) [Example 94], in test [2], the “Emax (% Dual)” value is 246 % Dual and the EC50 amounted to 7 nM.

In the case of `COc1ccc(C)cc1[C@@]1(C(=O)NS(=O)(=O)c2cccc3nc(C)ccc23)C[C@H]1c1ccccc1F` (single isomer, unassigned) [Example 26], the EC50 is 337 nM in test [1] (setting [3]), 368 nM in test [1] (setting [4]) and 2.8 nM in test [2]. The “Maximum % activity (without co-corrector)” value in test [1] (setting [5]) stood at 515%. Also, the “Emax (% Dual)” value in test [2] worked out at 293 % Dual.

As to `COc1cnc([C@@H]2C[C@]2(C(=O)NS(=O)(=O)c2cccc3nc(C)ccc23)c2cc(C)ccc2OC)cn1` (racemic) [Example 39, rac-(1r,2r)-1-(2-methoxy-5-methylphenyl)-2-(5-methoxypyrazin-2-yl)-N-(2-methylquinoline-5-sulfonyl)cyclopropane-1-carboxamide], the EC50 in test [1] (setting [3]) was 639 nM; in test [1] (setting [4]), 1230 nM; in test [2], 18 nM. Further, the “Maximum % activity (without co-corrector)” value in test [1] (setting [5]) worked out at 563%. Further, the “Emax (% Dual)” value in test [2] came to 317 % Dual.

Regarding `COc1ccc(C)cc1[C@@]1(C(=O)NS(=O)(=O)c2cccc3nc(C)ccc23)CC1c1ccc(C)nc1` (stereo in doubt) [Example 10, (1R,2S)-1-(2-methoxy-5-methylphenyl)-2-(6-methylpyridin-3-yl)-N-(2-methylquinoline-5-sulfonyl)cyclopropane-1-carboxamide], in test [2], the “Emax (% Dual)” value stood at 194 % Dual and the EC50 stood at 804 nM.

With `COc1ccc(C)cc1[C@]1(C(=O)NS(=O)(=O)c2cccc3nc(C)ccc23)C[C@@H]1c1cnc(OC)c(OC)c1` [Example 104, (1S,2R)-2-(5,6-dimethoxypyridin-3-yl)-1-(2-methoxy-5-methylphenyl)-N-(2-methylquinoline-5-sulfonyl)cyclopropane-1-carboxamide], in test [2], the “Emax (% Dual)” value is given as 350 % Dual and the EC50 came to 3.8 nM.

As to `COc1ccc(C)cc1[C@]1(C(=O)NS(=O)(=O)c2cccc3nc(C)ccc23)C[C@@H]1c1cnc(C(C)C)cn1` (single isomer, unassigned) [Example 64], in test [2], the “Emax (% Dual)” value is 342 % Dual and the EC50 worked out at 33.7 nM.

As to `CCOc1cnc([C@H]2C[C@@]2(C(=O)NS(=O)(=O)c2cccc3nc(C)ccc23)c2cc(C)ccc2OC)cn1` (single isomer, unassigned) [Example 66], in test [2], the “Emax (% Dual)” value was 253 % Dual and the EC50 came to 15.2 nM.

As for `COc1ccc(C)cc1[C@]1(C(=O)NS(=O)(=O)c2cccc3nc(C)ccc23)C[C@@H]1c1cnc(OC)c(C)n1` [Example 83, (1S,2S)-1-(2-methoxy-5-methylphenyl)-2-(5-methoxy-6-methylpyrazin-2-yl)-N-(2-methylquinoline-5-sulfonyl)cyclopropane-1-carboxamide], in test [2], the “Emax (% Dual)” value is on record as 246 % Dual and the 50% effective concentration (EC50) is 33.2 nM.

For `CCOc1ncccc1[C@H]1C[C@@]1(C(=O)NS(=O)(=O)c1cccc2nc(C)ccc12)c1cc(C)ccc1OC` (single isomer, unassigned) [Example 71], in test [2], the “Emax (% Dual)” value is 288 % Dual and the EC50 came to 11.3 nM.
